Test [1] concerns scopolamine-induced amnesia in mice. Put plainly: Elevated plus maze (EPM), scopolamine-induced amnesia. The test is classed as in vivo, Balb/C mice. Conditions: then scopolamine 1 mg/kg i.p., mean ± SEM, n = 6. The protocol: (§1) Balb/C mice iwth a weight of (17–23 gm) were procured from the NIH (National Institute of Health), Islamabad, which were kept for breeding under favorable conditions in the animal house of the Pharmacy Department, Shaheed Benazir Bhutto University Sheringal Dir (Upper). Light/dark cycle of about 12 h each was maintained, with relative humidity of 50–55% at 22–25 °C. This work was conducted with approval from the Departmental Ethical Committee (SBBU/IEC-20-02) of the Scientific Procedure Issue-I of the University of Malakand in compliance with provision of the 2008 Animal Byelaws.
(§2) Mice were divided into thirteen groups with 6 mice in each group.
(§3) Group I. Normal control group (vehicle treated) received 10 mL/kg (i.p.) normal saline.
(§4) Group IV–XIII. Sample (curcumin analog)-treated groups. Synthesized curcumin analogs were administered in doses of 7.5 mg/kg and 15 mg/kg (p.o.), respectively.
(§5) The groups were kept for 7 days at various treatments doses.
The EPM consisted of two open arms and two closed arms with dimensions of 16 cm × 5 cm × 12 cm, and was made from two poly acrylic sheets and designed as a plus sign with a central platform with dimensions of 5 cm × 5 cm, which was elevated 25 cm from the floor on a wooden stand. Mice were placed in the open arm in such a position that their direction was facing away from the central platform; then, the transfer latency time (TLT) was noted when the mice moved to the closed arm with its four legs from the open arm and then returned to their home cage. […] The following formula was used for calculation of inflexion ratio (IR). IR=L0−L1/L0 where L1 = initial transfer latency (s) and L0 = retention transfer latency (s).

For test [2], the system named is T1, BChE in the hippocampus region of mouse brain.
T1 construct: from tissue; host or cells: mouse brain hippocampus (supernatant of homogenate)
Type of test: in vivo. Conditions: pretreatment, then scopolamine, n = 6. The protocol:
as §5
(§6) The mice were sacrificed immediately after the behavioral study by cervical dislocation to provide quick and painless death to each animal before decapitation. Brain of each animal was excised in phosphate buffer saline (chilled) and incorporated into biochemical biomarker analysis.
(§7) Cholinesterase (AChE and BChE) levels were determined in the excised brain hippocampus using Ellman’s method with slight modification. Supernatant (0.4 mL), 0.1 M/L, pH 8 phosphate buffer (2.6 mL), and 100 µL of DTNB (5,5′-dithiobis-2-nitrobenzoic acid) and were added into cuvette and mixed. Spectrophotometer at 412 nm was run and absorbance was measured several times, then […] acetyl thiocholine iodide/butyrylthiocholine chloride was mixed into the reaction as substrate at an interval of 2 min, and variation in absorbance was noted and the changes in absorbance per min were recorded. The following formula was used for calculation of cholinesterase level: R = 5.74 × 10^−4 × A/CO where ‘R’ is the moles (rate) of substrate hydrolyzed/min/mg of protein, (A) is the change in absorbance/min, and ‘CO’ is concentration (20 mg/mL) of protein.

Test [3] deals with T2, AChE in the hippocampus region of mouse brain.
T2 construct: from tissue; host or cells: mouse brain hippocampus (supernatant of homogenate)
Type of test: in vivo. Conditions: pretreatment, then scopolamine, n = 6. The protocol:
as §5, §6, §7

The target of test [4] is T3, BChE (Equus caballus, UniProt P81908).
T3 construct: obtaining AChE and BChE enzymes from electric eel and equine serum, respectively; from tissue; host or cells: equine serum
T3 sequence (P81908 whole entry): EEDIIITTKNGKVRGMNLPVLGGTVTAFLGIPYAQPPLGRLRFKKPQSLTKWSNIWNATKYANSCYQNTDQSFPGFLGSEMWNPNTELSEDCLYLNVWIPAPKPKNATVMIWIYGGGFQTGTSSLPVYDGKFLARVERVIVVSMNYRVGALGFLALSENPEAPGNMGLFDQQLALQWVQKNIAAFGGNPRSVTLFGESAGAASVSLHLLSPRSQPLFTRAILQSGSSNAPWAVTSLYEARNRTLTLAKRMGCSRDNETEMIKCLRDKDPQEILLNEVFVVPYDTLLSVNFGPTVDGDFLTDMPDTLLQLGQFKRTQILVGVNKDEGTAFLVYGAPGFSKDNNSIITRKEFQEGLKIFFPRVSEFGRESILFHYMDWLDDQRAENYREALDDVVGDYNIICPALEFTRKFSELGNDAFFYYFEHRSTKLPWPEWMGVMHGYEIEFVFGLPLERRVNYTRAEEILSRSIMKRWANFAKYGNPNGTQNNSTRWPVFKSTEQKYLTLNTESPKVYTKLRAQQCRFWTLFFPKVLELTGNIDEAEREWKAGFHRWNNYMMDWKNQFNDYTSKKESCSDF
In words: biochemical. Conditions: for inhibition at 62.5 µg/mL / inhibition at 125 µg/mL / inhibition at 250 µg/mL / inhibition at 500 µg/mL / inhibition at 1000 µg/mL: read-out: BChE percent enzyme inhibition, Mean ± SEM. The protocol:
(§8) Evaluation of anticholinesterase activity of the synthesized compounds was performed according to Ellman’s method and was determined by obtaining AChE and BChE enzymes from electric eel and equine serum, respectively. DMSO was used for the dissolution of test samples (1 mg/mL), which were diluted in phosphate buffer (0.1 M) to concentrations from 1000 to 62.5 µg/mL. Phosphate buffer in 0.1 M, pH 8.0 was used for the dilution of 518 U/mg AChE and 7–16 U/mg BChE to obtain final concentrations of 0.03 U/mL and 0.01 U/mL for AChE and BChE, respectively. Substrate solutions of 0.5 mM ATchI, 0.2273 mM DTNB and 0.5 mM BTchI in distilled water were made and maintained separately in Eppendorf tubes at 8 °C in a refrigerator. The assay was started by adding 5 µL enzyme solution to a cuvette, then adding 205 µL test sample followed by 5 µL DTNB reagent. A 5 µL volume of substrate solution was added, and the solution mixture was maintained for 15 min in water bath at 30 °C. A spectrophotometer was used to measure absorbance at 412 nm at 30 °C with a reaction time of 4 min. […] The following formula was used for calculation of % enzyme inhibition.

Test [5] deals with T4, AChE (Electrophorus electricus, UniProt O42275).
T4 construct: obtaining AChE and BChE enzymes from electric eel and equine serum, respectively; from tissue; host or cells: electric eel
T4 sequence (O42275 24-633): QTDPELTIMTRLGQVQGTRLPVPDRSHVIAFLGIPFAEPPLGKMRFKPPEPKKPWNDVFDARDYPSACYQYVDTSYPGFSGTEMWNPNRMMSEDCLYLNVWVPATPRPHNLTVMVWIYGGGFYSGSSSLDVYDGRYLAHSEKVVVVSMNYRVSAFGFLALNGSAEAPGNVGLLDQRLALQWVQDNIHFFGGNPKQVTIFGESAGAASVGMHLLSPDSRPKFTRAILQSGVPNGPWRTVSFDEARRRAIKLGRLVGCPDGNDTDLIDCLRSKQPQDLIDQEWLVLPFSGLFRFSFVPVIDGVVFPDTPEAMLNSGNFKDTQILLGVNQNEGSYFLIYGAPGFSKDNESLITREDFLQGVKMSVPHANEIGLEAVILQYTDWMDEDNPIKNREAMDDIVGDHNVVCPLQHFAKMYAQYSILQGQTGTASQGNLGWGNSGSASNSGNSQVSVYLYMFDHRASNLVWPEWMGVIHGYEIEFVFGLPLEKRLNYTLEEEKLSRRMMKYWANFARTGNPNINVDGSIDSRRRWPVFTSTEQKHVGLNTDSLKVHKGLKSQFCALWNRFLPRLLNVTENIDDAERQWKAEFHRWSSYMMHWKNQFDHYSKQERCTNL
Put plainly: biochemical. Conditions: for inhibition at 62.5 µg/mL / inhibition at 125 µg/mL / inhibition at 250 µg/mL / inhibition at 500 µg/mL / inhibition at 1000 µg/mL: read-out: AChE percent enzyme inhibition, Mean ± SEM. The protocol: as §8

Test [6] deals with scopolamine-induced memory impairment in mice. Put plainly: Novel object recognition test (NORT), scopolamine-induced memory impairment. Type of test: in vivo, Balb/C mice. Conditions: for % DI in exploring the novel object versus scopolamine-treated group (in words): long-term memory, donepezil 2 mg/kg; for % DI in exploring the novel object versus scopolamine-treated group (in words) / Exploration time for the novel object in the test phase (in words): h compounds 7.5 and 15 mg/kg; for Exploration time for the novel object in the test phase (in words): DZP 2 mg/kg. The protocol:
as §1, §2, §3, §4, §5
The synthesized curcumin analogs were tested for possible memory enhancement potential by using novel object recognition test apparatus, which was designed using plexi glass with dimension of 40 cm × 40 cm × 30 cm. The mice, after acclimatization period, were allowed to move for 2–3 min one day before the test for habituation. In the two corners of the NORT apparatus, two identical objects were placed on the test day in the sample phase (T1), and the object exploration time was recorded. The objects were regarded as being explored when the mice touched the objects or directed their nose toward the object at a distance of less than 2 cm, […], the test phase (T2) was started, in which one of the familiar objects was replaced with a novel (new) object. Mice again freely explored the objects in similar manner to that in T1, and the exploration time for the novel (new) object and the familiar (F) object were noted separately. The DI (discrimination index) was measured using the following formula: DI=N−F/N+F

Where [7] appears, read: Ellman's method, 1000 to 62.5 μg/mL, n = 3, read-out: BChEI (IC50) (converted).
Setting [8] is: Ellman's method, 1000 to 62.5 μg/mL, n = 3, read-out: AChEI (IC50) (converted).

The source of these data is paper PMC8659060, “Neuroprotective Potential of Synthetic Mono-Carbonyl Curcumin Analogs Assessed by Molecular Docking Studies” (Molecules, 2021).

Like-named read-outs stand apart in the source and are kept apart here.

The term inhibition denotes the drop in the measured response relative to a control, in per cent. Usually IC50 stands for the concentration needed to halve the response being measured.

On to `COc1ccc(/C=C/C(=O)/C=C/c2ccc(OC)cc2)cc1` [h2, (1E,4E)-1,5-bis(4-Methoxyphenyl)penta-1,4-dien-3-one], for which the “Retention (transfer latency time, TLT)” value stood at 31.51 ± 2.73 s in test [1] (7.5 mg/kg p.o. for 7 days) and 25.32 ± 2.42 s in test [1] (15 mg/kg p.o. for 7 days). For the same compound, the “Reversal of scopolamine-increased hippocampus BChE level (in words)” value in test [2] is listed as “significantly reversed”. Besides, the “Reversal of scopolamine-increased hippocampus AChE level (in words)” value in test [3] is listed as “reversed”. Besides, the inhibition at 62.5 µg/mL turned out to be 41.82 ± 0.18% in test [4] (62.5 µg/mL) and 46.88 ± 0.15% in test [5] (62.5 µg/mL). Further, the inhibition at 125 µg/mL in test [4] (125 µg/mL) worked out at 48.61 ± 0.15%; in test [5] (125 µg/mL), 53.57 ± 0.17%. In addition, the inhibition at 250 µg/mL in test [4] (250 µg/mL) came out at 57.22 ± 0.01%; in test [5] (250 µg/mL) it was 61.21 ± 0.18%. For the same compound, the values for the inhibition at 500 µg/mL in test [4] (500 µg/mL) and in test [5] (500 µg/mL) were 64.38 ± 0.06% and 73.79 ± 0.12%, respectively. Also, the inhibition at 1000 µg/mL in test [4] (1000 µg/mL) was determined as 69.77 ± 0.03%; in test [5] (1000 µg/mL) it was 76.23 ± 0.15%. In addition, the concentration for half-maximal inhibition (IC50) in test [4] (setting [7]) was 503 µM; in test [5] (setting [8]), 317 µM. In test [6], the “% DI in exploring the novel object versus scopolamine-treated group (in words)” value is reported as “significant increase”. Also, the “Exploration time for the novel object in the test phase (in words)” value (shortened to “Exploration time … (in words)”) in test [6] (short-term memory) is recorded as “significantly more time exploring the novel object”.

As to `O=C(/C=C/c1ccc([N+](=O)[O-])cc1)/C=C/c1ccc([N+](=O)[O-])cc1` [h5, (1E,4E)-1,5-bis(4-Nitrophenyl)penta-1,4-dien-3-one], the “Retention (transfer latency time, TLT)” value in test [1] (7.5 mg/kg p.o. for 7 days) stood at 34.71 ± 1.37 s. In addition, the “Retention (transfer latency time, TLT)” value in test [1] (15 mg/kg p.o. for 7 days) stood at 31.51 ± 1.54 s. The “Reversal of scopolamine-increased hippocampus BChE level (in words)” value in test [2] was “no promising results”. Also, the “Reversal of scopolamine-increased hippocampus AChE level (in words)” value in test [3] was “no prominent”. Besides, in test [4], half-maximal inhibition (IC50) required 3050 µM, the inhibition at 62.5 µg/mL is 16.2 ± 0.83%, the inhibition at 125 µg/mL worked out at 20.3 ± 0.31% and the inhibition at 250 µg/mL is 32.73 ± 0.01%. In test [4], the inhibition at 500 µg/mL came out at 43.51 ± 0.13% and the inhibition at 1000 µg/mL was determined as 51.82 ± 0.16%. Also, in test [5], the 50% inhibitory concentration (IC50) was 1950 µM, the inhibition at 62.5 µg/mL was 26.45 ± 0.18%, the inhibition at 125 µg/mL was determined as 35.51 ± 0.06% and the inhibition at 250 µg/mL stood at 41.27 ± 0.04%. For the same compound, in test [5], the inhibition at 500 µg/mL was determined as 47.33 ± 0.16% and the inhibition at 1000 µg/mL came out at 58.41 ± 0.13%. Besides, in test [6], the “% DI in exploring the novel object versus scopolamine-treated group (in words)” value is given as “no promising results”. In addition, in test [6] (short-term memory, 7.5 and 15 mg/kg p.o.), the “% DI versus scopolamine-treated group (in words)” value is “no promising results”.

With `COc1cc2c(cc1OC)C(=O)C(CC1CCN(Cc3ccccc3)CC1)C2` (stereo not drawn) [Donepezil, reference compound], the “Retention (transfer latency time, TLT)” value amounted to 25.57 ± 1.93 s in test [1] (2 mg/kg p.o. for 7 days) and 25.57 ± 1.93 s in test [1] (2 mg/kg p.o. for 7 days, listed as donepezil). Also, the “% DI in exploring the novel object versus scopolamine-treated group (in words)” value in test [6] is “significant increase”. Further, the “Exploration time for the novel object” value in test [6] (short-term memory, test phase, 2 mg/kg p.o. + scopolamine 1 mg/kg i.p.) came out at 21.59 ± 2.44 s. In test [6] (short-term memory), the “Exploration time … (in words)” value was “significantly higher exploration times”.

Regarding `O=C(/C=C/c1ccc(Cl)cc1)/C=C/c1ccc(Cl)cc1` [h3, (1E,4E)-1,5-bis(4-Chlorophenyl)penta-1,4-dien-3-one], the results for the “Retention (transfer latency time, TLT)” value in test [1] (7.5 mg/kg p.o. for 7 days) and in test [1] (15 mg/kg p.o. for 7 days) were 25.26 ± 2.51 s and 21.27 ± 2.92 s, respectively. Moreover, the “Reversal of scopolamine-increased hippocampus BChE level (in words)” value in test [2] was “significantly reversed”. Also, in test [3], the “Reversal of scopolamine-increased hippocampus AChE level (in words)” value is “reversed”. For the same compound, the inhibition at 62.5 µg/mL in test [4] (62.5 µg/mL) turned out to be 49.25 ± 0.02%; in test [5] (62.5 µg/mL), 53.53 ± 0.12%. For the same compound, the inhibition at 125 µg/mL in test [4] (125 µg/mL) was 58.33 ± 0.13%; in test [5] (125 µg/mL), 62.44 ± 0.16%. Besides, the inhibition at 250 µg/mL in test [4] (250 µg/mL) came out at 62.41 ± 0.19%; in test [5] (250 µg/mL), 69.51 ± 0.13%. The inhibition at 500 µg/mL in test [4] (500 µg/mL) turned out to be 69.52 ± 0.12%; in test [5] (500 µg/mL) it was 77.25 ± 0.11%. The inhibition at 1000 µg/mL in test [4] (1000 µg/mL) was determined as 78.72 ± 0.16%; in test [5] (1000 µg/mL), 83.31 ± 0.13%. The half-maximal inhibitory concentration (IC50) in test [4] (setting [7]) was 222 µM; in test [5] (setting [8]), 96.9 µM. Further, the “% DI in exploring the novel object versus scopolamine-treated group (in words)” value in test [6] is “significant increase”. Also, the “Exploration time … (in words)” value in test [6] (short-term memory) is given as “significantly more time exploring the novel object”.

In the case of `COc1ccc2c3c1O[C@H]1C[C@@H](O)C=C[C@@]31CCN(C)C2` [Galanthamine, reference compound], in test [4], the inhibition at 62.5 µg/mL came to 61.35 ± 0.18%, the inhibition at 125 µg/mL was 66.2 ± 0.15%, the inhibition at 250 µg/mL came to 73.42 ± 0.11% and the inhibition at 500 µg/mL amounted to 78.62 ± 0.17%.
